Measured values: patent US12435044B2, “Pyridazinone herbicides and pyridazinone intermediates used to prepare a herbicide” (FMC Corporation, priority 2018, dated 2025)

Experiments:
Format in all cases: in vivo
[1] = system: Canada thistle (Cirsium arvense); test: Test C postemergence greenhouse test; details: scale 0 to 100
Description: (§1) Seeds of plant species selected from blackgrass (Alopecurus myosuroides), ryegrass, Italian (Lolium multiflorum), wheat, winter (winter wheat, Triticum aestivum), galium (catchweed bedstraw, Galium aparine), corn (Zea mays), crabgrass, large (Digitaria sanguinalis), foxtail, giant (Setaria faberii), johnsongrass (Sorghum halepense), lambsquarters (Chenopodium album), morningglory (Ipomoea coccinea), nutsedge, yellow (Cyperus esculentus), pigweed (Amaranthus retroflexus), ragweed (common ragweed, Ambrosia elatior), soybean (Glycine max), barnyardgrass (Echinochloa crus-galli), oilseed rape (Brassica napus), waterhemp (common waterhemp, Amaranthus rudis), pigweed, palmer (Amaranthus palmeri), kochia (Kochia scoparia), oat, wild (Avena fatua), surinam grass (Brachiaria decumbens), windgrass (Apera spica-venti), poinsettia, wild (Euphorbia heterophylla) and velvetleaf (Abutilon theophrasti) were planted into a silt loam soil and treated preemergence with test chemicals formulated in a non-phytotoxic solvent mixture which included a surfactant.
(§2) At the same time, plants selected from these crop and weed species and also chickweed (common chickweed, Stellaria media), buckwheat, wild (Polygonum convolvulus), mustard, wild (Sinapis arvensis), field poppy (Papaver rhoeas), field violet (Viola arvensis), nightshade (eastern black nightshade, Solanum ptycanthum), speedwell (bird's-eye speedwell, Veronica persica), horseweed (Conyza canadensis), cutleaf geranium (Geranium dissectum), and Canada thistle (Cirsium arvense) were planted in pots containing Redi-Earth® planting medium (Scotts Company, 14111 Scottslawn Road, Marysville, Ohio 43041) comprising spaghnum peat moss, vermiculite, wetting agent and starter nutrients and treated with postemergence applications of test chemicals formulated in the same manner. Plants ranged in height from 2 to 18 cm (1- to 4-leaf stage) for postemergence treatments. Treated plants and controls were maintained in a greenhouse for 13 to 21 d, after which time all species were compared to controls and visually evaluated. Plant response ratings, summarized in Table C-1 (postemergence) and C-2 (preemergence), are based on a scale of 0 to 100 where 0 is no effect and 100 is complete control. A dash (-) response means no test result.

[2] = system: buckwheat, wild (Polygonum convolvulus); test: Test C postemergence greenhouse test; details: scale 0 to 100
Description: as §1, §2

[3] = system: cutleaf geranium (Geranium dissectum); test: Test C postemergence greenhouse test; details: scale 0 to 100
Description: as §1, §2

[4] = system: field violet (Viola arvensis); test: Test C postemergence greenhouse test; details: scale 0 to 100
Description: as §1, §2

[5] = system: mustard, wild (Sinapis arvensis); test: Test C postemergence greenhouse test; details: scale 0 to 100
Description: as §1, §2

[6] = system: speedwell (bird's-eye speedwell, Veronica persica); test: Test C postemergence greenhouse test; details: scale 0 to 100
Description: as §1, §2

[7] = system: barnyardgrass (Echinochloa crus-galli); test: Test F flooded paddy test; details: Flood, after 21 d
Description: (§3) Three plastic pots (ca. 16-cm diameter) per rate were partially filled with sterilized Tama silt loam soil comprising a 35:50:15 ratio of sand, silt and clay and 2.6% organic matter. Separate plantings for each of the three pots were as follows. Seeds from the U.S. of monochoria (Monochoria vaginalis), sedge, umbrella (small-flower umbrella sedge, Cyperus difformis) and redstem (purple redstem, Ammannia coccinea), were planted into one 16-cm pot for each rate. Seeds from the U.S. of rice flatsedge (Cyperus iria), sprangletop, Brdd. (bearded sprangletop, Leptochloa fascicularis), one stand of 9 or 10 water seeded rice seedlings (Rice, W. S. Jap, Oryza sativa cv. ‘Japonica-M202’ or Rice, W. S. Ind, ‘Indica’), and two stands of 3 or 4 transplanted rice seedlings (Oryza sativa cv. ‘Japonica-M202’) were planted into one 16-cm pot for each rate. Seeds from the U.S. of barnyardgrass (Echinochloa crus-galli), and late watergrass (Echinochloa oryzicola) were planted into one 16-cm pot for each rate.
(§4) Plantings were sequential so that crop and weed species were at the 2.0 to 2.5-leaf stage at time of treatment.
(§5) Potted plants were grown in a greenhouse with day/night temperature settings of 30/27° C., and supplemental balanced lighting was provided to maintain a 16-hour photoperiod. Test pots were maintained in the greenhouse until test completion.
(§6) At time of treatment, test pots were flooded to 3 cm above the soil surface, treated by application of test compounds directly to the paddy water, and then maintained at that water depth for the duration of the test. Effects of treatments on rice and weeds were visually evaluated by comparison to untreated controls after 21 d. Plant response ratings, summarized in Table F, are based on a scale of 0 to 100 where 0 is no effect and 100 is complete control. A dash (-) response means no test result.

[8] = system: late watergrass (Echinochloa oryzicola); test: Test F flooded paddy test; details: Flood, after 21 d
Description: as §3, §4, §5, §6

[9] = system: monochoria (Monochoria vaginalis); test: Test F flooded paddy test; details: Flood, after 21 d
Description: as §3, §4, §5, §6

[10] = system: transplanted rice seedlings (Oryza sativa cv. ‘Japonica-M202’); test: Test F flooded paddy test; details: Flood, after 21 d
Description: as §3, §4, §5, §6

[11] = system: water seeded rice seedlings (Rice, W. S. Jap, Oryza sativa cv. ‘Japonica-M202’ or Rice, W. S. Ind, ‘Indica’); test: Test F flooded paddy test; details: Flood, after 21 d
Description: as §3, §4, §5, §6

SMILES: Cc1cc(Cl)c2ccccc2c1-c1c(O)c(Cl)nn(C)c1=O [Cpd. No. 65]
- Plant response rating, Canada Thistle ([1]; 16 g ai/ha): 80
- Plant response rating, Canada Thistle ([1]; 31 g ai/ha): 90
- Plant response rating, Canada Thistle ([1]; 62 g ai/ha): 98
- Plant response rating, Canada Thistle ([1]; 125 g ai/ha): 90
- Plant response rating, Buckwheat, Wild ([2]; 16 g ai/ha): 100
- Plant response rating, Buckwheat, Wild ([2]; 31 g ai/ha): 100
- Plant response rating, Buckwheat, Wild ([2]; 62 g ai/ha): 100
- Plant response rating, Buckwheat, Wild ([2]; 125 g ai/ha): 100
- Plant response rating, Cutleaf Geranium ([3]; 16 g ai/ha): 85
- Plant response rating, Cutleaf Geranium ([3]; 31 g ai/ha): 90
- Plant response rating, Cutleaf Geranium ([3]; 62 g ai/ha): 95
- Plant response rating, Cutleaf Geranium ([3]; 125 g ai/ha): 95
- Plant response rating, Field Violet ([4]; 16 g ai/ha): 70
- Plant response rating, Field Violet ([4]; 31 g ai/ha): 80
- Plant response rating, Field Violet ([4]; 62 g ai/ha): 85
- Plant response rating, Field Violet ([4]; 125 g ai/ha): 85
- Plant response rating, Mustard, Wild ([5]; 16 g ai/ha): 98
- Plant response rating, Mustard, Wild ([5]; 31 g ai/ha): 100
- Plant response rating, Mustard, Wild ([5]; 62 g ai/ha): 100
- Plant response rating, Mustard, Wild ([5]; 125 g ai/ha): 100
- Plant response rating, Speedwell ([6]; 16 g ai/ha): 55
- Plant response rating, Speedwell ([6]; 31 g ai/ha): 65
- Plant response rating, Speedwell ([6]; 62 g ai/ha): 75
- Plant response rating, Speedwell ([6]; 125 g ai/ha): 90
- Plant response rating (0 to 100 scale) ([7]; 64 g ai/ha): 10
- Plant response rating (0 to 100 scale) ([7]; 125 g ai/ha): 60
- Plant response rating (0 to 100 scale) ([8]; 64 g ai/ha): 20
- Plant response rating (0 to 100 scale) ([8]; 125 g ai/ha): 55
- Plant response rating (0 to 100 scale) ([9]; 64 g ai/ha): 100
- Plant response rating (0 to 100 scale) ([9]; 125 g ai/ha): 100
- Plant response rating (0 to 100 scale) ([10]; 64 g ai/ha): 0
- Plant response rating (0 to 100 scale) ([10]; 125 g ai/ha): 15
- Plant response rating (0 to 100 scale) ([11]; 64 g ai/ha): 0
- Plant response rating (0 to 100 scale) ([11]; 125 g ai/ha): 0

SMILES: Cc1ccc2ccc(C)c(-c3c(O)c(Cl)nn(C)c3=O)c2c1 [Cpd. No. 20, 6-chloro-4-(2,7-dimethyl-1-naphthalenyl)-5-hydroxy-2-methyl-3(2H)-pyridazinone]
- Plant response rating (0 to 100 scale) ([7]; 31 g ai/ha): 0
- Plant response rating (0 to 100 scale) ([7]; 62 g ai/ha): 0
- Plant response rating (0 to 100 scale) ([7]; 125 g ai/ha): 43
- Plant response rating (0 to 100 scale) ([7]; 250 g ai/ha): 65
- Plant response rating (0 to 100 scale) ([8]; 31 g ai/ha): 0
- Plant response rating (0 to 100 scale) ([8]; 62 g ai/ha): 35
- Plant response rating (0 to 100 scale) ([8]; 125 g ai/ha): 50
- Plant response rating (0 to 100 scale) ([8]; 250 g ai/ha): 73
- Plant response rating (0 to 100 scale) ([9]; 31 g ai/ha): 10
- Plant response rating (0 to 100 scale) ([9]; 62 g ai/ha): 90
- Plant response rating (0 to 100 scale) ([9]; 125 g ai/ha): 95
- Plant response rating (0 to 100 scale) ([9]; 250 g ai/ha): 99
- Plant response rating (0 to 100 scale) ([10]; 31 g ai/ha): 0
- Plant response rating (0 to 100 scale) ([10]; 62 g ai/ha): 0
- Plant response rating (0 to 100 scale) ([10]; 125 g ai/ha): 0
- Plant response rating (0 to 100 scale) ([10]; 250 g ai/ha): 0
- Plant response rating (0 to 100 scale) ([11]; 31 g ai/ha): 0
- Plant response rating (0 to 100 scale) ([11]; 62 g ai/ha): 0
- Plant response rating (0 to 100 scale) ([11]; 125 g ai/ha): 5
- Plant response rating (0 to 100 scale) ([11]; 250 g ai/ha): 23

SMILES: Cc1ccc2ccc(Cl)cc2c1-c1c(O)c(Cl)nn(C)c1=O [Cpd. No. 22]
- Plant response rating, Canada Thistle ([1]; 16 g ai/ha): 80
- Plant response rating, Canada Thistle ([1]; 31 g ai/ha): 80
- Plant response rating, Canada Thistle ([1]; 62 g ai/ha): 100
- Plant response rating, Canada Thistle ([1]; 125 g ai/ha): 100
- Plant response rating, Buckwheat, Wild ([2]; 16 g ai/ha): 95
- Plant response rating, Buckwheat, Wild ([2]; 31 g ai/ha): 100
- Plant response rating, Buckwheat, Wild ([2]; 62 g ai/ha): 100
- Plant response rating, Buckwheat, Wild ([2]; 125 g ai/ha): 100
- Plant response rating, Cutleaf Geranium ([3]; 16 g ai/ha): 70
- Plant response rating, Cutleaf Geranium ([3]; 31 g ai/ha): 80
- Plant response rating, Cutleaf Geranium ([3]; 62 g ai/ha): 85
- Plant response rating, Cutleaf Geranium ([3]; 125 g ai/ha): 85
- Plant response rating, Field Violet ([4]; 16 g ai/ha): 60
- Plant response rating, Field Violet ([4]; 31 g ai/ha): 70
- Plant response rating, Field Violet ([4]; 62 g ai/ha): 75
- Plant response rating, Field Violet ([4]; 125 g ai/ha): 80
- Plant response rating, Mustard, Wild ([5]; 16 g ai/ha): 75
- Plant response rating, Mustard, Wild ([5]; 31 g ai/ha): 75
- Plant response rating, Mustard, Wild ([5]; 62 g ai/ha): 100
- Plant response rating, Mustard, Wild ([5]; 125 g ai/ha): 100
- Plant response rating, Speedwell ([6]; 16 g ai/ha): 50
- Plant response rating, Speedwell ([6]; 31 g ai/ha): 60
- Plant response rating, Speedwell ([6]; 62 g ai/ha): 75
- Plant response rating, Speedwell ([6]; 125 g ai/ha): 90
